We go through five compounds from patent publication US12058988B2, “Warm water immersion-based hatching method of silkworm eggs” (Sericulture and Agri-Food Research Institute, Guangdong …, priority 2021, dated 2024).

Each structure is given as a SMILES string. Read-outs that look alike come from different tables or passages of the source.

In test [1] the test system is silkworm eggs. The note with it: cited from earlier work; for hatching rate: silkworm eggs 20 h after oviposition, 15% acid treatment (Manqiao Jiang et al.).
For test [2], the system named is silkworm eggs of a "Liangguang 2" quaternary hybrid. Kind of test: Feeding results of larvae after treating silkworm eggs by warm water hatching and hydrochloric acid hatching. It is filed as in vivo, Bombyx mori. Conditions: eggs treated 18 h after laying, larvae fed after hatching. On the procedure: 18 h after laying eggs, silkworm eggs of a “Liangguang 2” quaternary hybrid were treated in a hydrochloric acid solution (at a specific gravity of 1.075, 46° C.) for 5 min, followed by taking out for air-drying, incubation and hatching. Statistics was conducted on cocooning rate, whole cocoon weight, cocoon shell weight, cocoon shell rate and 10,000-silkworm cocoon weight.
18 h after laying eggs, silkworm eggs of a “Liangguang 2” quaternary hybrid were treated in a 50° C. warm aqueous solution (containing 0.2 g/L of chitosan, 0.1 g/L of hydroxypropyl cellulose and 0.1 g/L of γ-aminobutyric acid) for 20 s, followed by taking out for air-drying, incubation and hatching. Statistics was conducted on cocooning rate, whole cocoon weight, cocoon shell weight, cocoon shell rate and 10,000-silkworm cocoon weight.

Test [3] has as its system silkworm eggs. The test can be described thus: Practical hatching rate of silkworm eggs after immersion treatment. It is filed as in vivo, Bombyx mori. Conditions: "Liangguang 2" quaternary hybrid, 18 h after laying, specific gravity 1.075, 46° C. for 5 min.
Protocol: After laying eggs, “Liangguang 2” silkworm eggs were placed at 25° C.±1° C. and a humidity of 80%±5% for protection; the silkworm eggs with egg ages of 11 h, 13 h, 15 h, 17 h, 19 h, 21 h and 23 h were placed in an aqueous solution (containing 0.2 g/L of chitosan, 0.1 g/L of hydroxypropyl cellulose and 0.1 g/L of γ-aminobutyric acid) and then treated at 50° C. for 15 s, followed by taking out and air-drying for 25 min; and the silkworm eggs were subjected to incubation and hatching, wherein 3 replicates were set for each treatment. A practical hatching rate was calculated according to formula I, and an egg age-practical hatching rate curve was drawn. Practical hatching rate (%)=number of newly-hatched silkworms in two days/the total number of good eggs×100% formula I
17 h after laying eggs, silkworm eggs of a “Liangguang 2” quaternary hybrid were treated in a 50° C. aqueous solution (containing 0.1 g/L of chitosan, 0.2 g/L of hydroxypropyl cellulose and 0.05 g/L of γ-aminobutyric acid) for 20 s, followed by taking out for air-drying, incubation and hatching.
A practical hatching rate was counted. […]

With `CC(=O)O` [acetic acid], the hatching rate result in test [1] was “relatively low hatching rate”.

As to `C[S+](C)[O-]` [dimethyl sulfoxide], in test [1] (Yamamoto et al.), the “effect of preventing diapause” value is 78%.

Regarding `Cl` [hydrochloric acid], in test [2], the “10,000-silkworm cocoon weight” value came to 13.05 kg, the Cocoon shell rate was determined as 19.42%, the Cocoon shell weight is 0.26 g and the Cocooning rate stood at 96.27%. Also, in test [2], the Whole cocoon weight was 1.35 g. The hatching rate in test [3] stood at 95.86%.

With `O=[N+]([O-])O` [nitric acid], the hatching rate result in test [1] is reported as “not less than 95%”.

Consider `O=P(O)(O)O` [phosphoric acid], for which the hatching rate entry in test [1] was “relatively low hatching rate”.
